# Laboratory results as given in US10111428B2, “Nematocide containing lactonic ring and preparation method and application thereof” (priority 2015, dated 2018).
# Read-outs that look alike come from different tables or passages of the source.
# Experiments:
# [1] = test system: Earthworm; test: Earthworm toxicity test (Test Guidelines on Environmental Safety Assessment for Chemical Pesticides); type: in vivo; conditions: cell adds 'low toxicity'
# Protocol: (§1) According to the earthworm and edaphon toxicity test procedures as prescribed in the Test Guidelines on Environmental Safety Assessment for Chemical Pesticides, earthworm and edaphon toxicity tests are conducted on compounds 1 to 60 from Table 1. The simulative usual dose of pesticide in the edaphon test is 40 ppm.
# [2] = test system: Nematode J2; test: Plant pathogenic nematode inhibition test by dipping: second-stage juveniles; type: in vivo
# [3] = test system: Edaphon; test: Edaphon toxicity test (Test Guidelines on Environmental Safety Assessment for Chemical Pesticides)
# Protocol: as §1
# [4] = test system: Nematode eggs; test: Plant pathogenic nematode inhibition test by dipping: nematode egg hatch inhibition (NY/T 1154.5-2006); type: in vivo
# Protocol: A plant pathogenic nematode inhibition test is conducted by dipping with the compounds in Table 1; and by referring to NY/T 1154.5-2006 (Part 5: Dipping Test for Insecticide Ovicidal Activity), the nematode egg hatch inhibition activity of the compounds is tested, as shown in Table 2: […]
# [5] = 15 d, 100 times of usual dose (simulative usual dose 40 ppm), cell adds 'low toxicity'
Compound,Earthworm Toxicity LC50 (14 d) [1],LC50 ([2]; in vivo) [µg/mL],"Edaphon Toxicity (15 d) (Inhibition ratio when added amount is 100 times of usual dose) [3, 5]",LC50 ([4]; in vivo) [µg/mL],"LC50 ([2]; Test object: nematode J2 (second-stage juveniles), dipping) [µg/mL]",Edaphon Toxicity (15 d) (Inhibition ratio when added amount is 100 times of usual dose) [3],"LC50 ([4]; Test object: nematode eggs, dipping) [µg/mL]"
O=C1CC(C(=O)OCCC=C(F)F)C(c2ccccc2C(F)(F)F)O1 (centres unmarked) [Compound 45],">10, low toxicity mg/L",12.35,"<50%, low toxicity",10.14,,,
CCCCc1ccc(C2OC(=O)CC2C(=O)OCCC(F)=C(F)F)cc1 (centres unmarked) [Compound 6],">10, low toxicity mg/L",13.45,"<50%, low toxicity",11.81,,,
O=C1CC(C(=O)OCCC(F)=C(F)F)C(c2cc(Cl)ccc2Cl)O1 (centres unmarked) [Compound 10],">10, low toxicity mg/L",13.30,"<50%, low toxicity",10.80,,,
COc1ccc(C2OC(=O)CC2C(=O)OCCC=C(F)F)cc1 (centres unmarked) [Compound 38],">10, low toxicity mg/L",13.40,"<50%, low toxicity",12.14,,,
O=C1CC(C(=O)OCCC(F)=C(F)F)C(c2cccc(F)c2)O1 (centres unmarked) [Compound 27],">10, low toxicity mg/L",,,,8.91,"<50%, low toxicity",7.85
Nc1ccccc1C1OC(=O)CC1C(=O)OCCC(F)=C(F)F (centres unmarked) [Compound 59],">10, low toxicity mg/L",13.24,"<50%, low toxicity",11.24,,,
O=C1CC(C(=O)OCCC(F)=C(F)F)C(c2cc(C(F)(F)F)cc(C(F)(F)F)c2)O1 (centres unmarked) [Compound 48],">10, low toxicity mg/L",13.27,"<50%, low toxicity",12.25,,,
O=C1CC(C(=O)OCCC(F)=C(F)F)C(c2cccc([N+](=O)[O-])c2)O1 (centres unmarked) [Compound 57],">10, low toxicity mg/L",14.23,"<50%, low toxicity",12.12,,,
O=C1CC(C(=O)OCCC(F)=C(F)F)C(c2cc(F)c(F)c(F)c2)O1 (centres unmarked) [Compound 30],">10, low toxicity mg/L",10.96,"<50%, low toxicity",9.73,,,
O=C1CC(C(=O)OCCC(F)=C(F)F)C(c2ccc(Oc3ccc(Cl)cc3)cc2)O1 (centres unmarked) [Compound 54],">10, low toxicity mg/L",14.16,"<50%, low toxicity",12.40,,,
COc1ccccc1C1OC(=O)CC1C(=O)OCCC(F)=C(F)F (centres unmarked) [Compound 35],">10, low toxicity mg/L",11.67,"<50%, low toxicity",10.84,,,
O=C1CC(C(=O)OCCC=C(F)F)C(c2ccccc2)O1 (centres unmarked) [Compound 1],">10, low toxicity mg/L",12.24,"<50%, low toxicity",11.81,,,
O=C1CC(C(=O)OCCC(F)=C(F)F)C(c2ccc(OCc3ccc(F)cc3)cc2)O1 (centres unmarked) [Compound 56],">10, low toxicity mg/L",13.47,"<50%, low toxicity",11.56,,,
O=C1CC(C(=O)OCCC(F)=C(F)F)C(c2cccc(Cl)c2)O1 (centres unmarked) [Compound 14],">10, low toxicity mg/L",13.01,"<50%, low toxicity",12.10,,,
